Read-outs that look alike come from different tables or passages of the source. Ends that are not written are not given here. Peptide text beside a SMILES is read from it.

For one series, the system named is T. rubrum. Briefly: MIC of antimicrobial peptides. Type of series: cell-based. How it is done:
(§1) Typically, the in vitro antimicrobial activity of antimicrobial agents is tested using standard NCCLS bacterial inhibition assays, or MIC tests (see, National Committee on Clinical Laboratory Standards “Performance Standards for Antimicrobial Susceptibility Testing,” NCCLS Document M100-S5 Vol. 14, No. 16, December 1994; “Methods for dilution antimicrobial susceptibility test for bacteria that grow aerobically-Third Edition,” Approved Standard M7-A3, National Committee for Clinical Standards, Villanova, Pa.).

For a further series, the system named is B. subtilis. Briefly: MIC of antimicrobial peptides. Type of series: cell-based. How it is done:
as §1

In the next series the test system is A. niger. Briefly: MIC of antimicrobial peptides. Format: cell-based. On the procedure:
as §1

For the next series, the system named is A. baumannii. Type of series: cell-based. How it is done: as §1
The next series has as its system C. jeikeium. Type of series: cell-based. On the procedure: as §1
The subject of the next series is P. aeruginosa. Type of series: cell-based. How it is done: as §1
Another series deals with S. epidermidis. Format: cell-based. How it is done:
as §1

A further series relates to C. difficile. Type of series: cell-based. How it is done: as §1
For series [1], the system named is S. mutans. Format: cell-based. How it is done: as §1
For another series, the system named is S. pneumoniae. Type of series: cell-based. How it is done:
as §1

Series [2] concerns S. mutans. To be noted: Streptococcus mutans.
A further series deals with MRSA. The experiment in a line: MIC of antimicrobial peptides. Format: cell-based, methicillin resistant Staphylococcus aureus. On the procedure: as §1
The next series relates to E. coli. The experiment in a line: MIC of antimicrobial peptides. Format: cell-based. On the procedure: as §1

Usually MIC stands for the least concentration at which growth counts as inhibited. For YIQFHLNQQPRPKVKKIKIFL-NH2 [PF-531], the MIC result with T. rubrum was “T. rubrum, 50 μM”; in the series on B. subtilis it was “B. subtilis, 25 μM”; in the series on A. niger it was “A. niger, 25 μM”; in the series on A. baumannii it was 25 µM; in the series on C. jeikeium, 6.25 µM; against P. aeruginosa it was 50 µM. For the same molecule, the MIC is 50 µM in the series with S. epidermidis, 12.5 µM against C. difficile and 12.5 µM in the series on S. mutans [1]. Turning to “LGLTAGVAYAAQPTNQPTNQPTNQPTNQPTNQPTNQPRW-NH2 [PF-520]”, in the series with S. pneumoniae (S. pneumoniae), the MIC came to 50 µM. Take “TFFRLFNRSFTQALGKGGGKNLRIIRKGIHIIKKY-NH2 [C16G2, reference compound]”: the “% viability remaining” value in the series on S. mutans [2] was “antimicrobial peptide and GGG linker showed 5-18% remaining activity”. Same read-out and setting: with “TFFRLFNRSFTQALAKGGGKNLRIIRKGIHIIKKY-NH2 (C-terminus assumed) [G15-A15_C16G2]” the figure was 47%.

As to `CSCC[C@H](N)C(=O)N[C@@H](CCCCN)C(=O)N[C@@H](CCCNC(=N)N)C(=O)N[C@@H](CCCNC(=N)N)C(=O)N[C@@H](CCCNC(=N)N)C(=O)N[C@@H](CS)C(=O)N[C@@H](CC(N)=O)C(=O)N[C@@H](Cc1c[nH]c2ccccc12)C(=O)N[C@@H](CS)C(=O)NCC(=O)N[C@@H](CCCCN)C(=O)N[C@@H](CC(C)C)C(=O)N[C@@H](Cc1ccccc1)C(=O)N[C@@H](Cc1ccc(O)cc1)C(=O)N[C@@H](CC(C)C)C(=O)N[C@@H](CCC(=O)O)C(=O)N[C@@H](CCC(=O)O)C(=O)N[C@@H](CCCCN)C(=O)N[C@@H](CO)C(=O)N[C@@H](CCCCN)C(=O)N[C@@H](CCC(=O)O)C(=O)N[C@@H](C)C(=O)N[C@@H](Cc1ccc(O)cc1)C(=O)N[C@@H](CS)C(=O)N[C@@H](CS)C(=O)N[C@@H](CCCCN)C(=O)N[C@@H](CCC(=O)O)C(=O)N[C@@H](CS)C(=O)N[C@@H](CCCNC(=N)N)C(=O)N[C@@H](CCCCN)C(=O)N[C@@H](CCCCN)C(=O)N[C@@H](C)C(=O)N[C@@H](CCCCN)C(=O)N[C@@H](CCCCN)C(=O)N[C@H](C(=O)N[C@@H](CCCCN)C(=O)N[C@@H](CCCCN)C(=O)O)C(C)C` [PF-307] (H-MKRRRCNWCGKLFYLEEKSKEAYCCKECRKKAKKVKK-OH; N-terminus and C-terminus assumed), the MIC result in the series with T. rubrum is “T. rubrum, 50 μM”; in the series on B. subtilis, “B. subtilis, 50 μM”. In the case of MIRIRSPTKKKLNRNSISDWKSNTSGRFFY [PF-283], the minimum inhibitory concentration (MIC) entry with T. rubrum is given as “T. rubrum, 50 μM”; with B. subtilis, “B. subtilis, 50 μM”. For the molecule “TFFRLFNRSQTQALGKGGGKNLRIIRKGIHIIKKY-NH2 (C-terminus assumed) [F10 to Q10_C16G2]”, the “% viability remaining” value with S. mutans [2] stood at 73%. Take “TLFRLLNRSLTQALGKGGGKNLRIIRKGIHIIKKY-NH2 (C-terminus assumed) [F2F6F10-L2L6L10_C16G2]”: the “% viability remaining” value in the series on S. mutans [2] is recorded as 26%. FIRKFLQKLHL [K-16]: the MIC was 12.5 µM in the series with P. aeruginosa; “S. mutans, 8 μM” in the series on S. mutans [1] (S. mutans); “MRSA, 25 μM” in the series on MRSA. As to “TAFRLANRSATQALGKGGGKNLRIIRKGIHIIKKY-NH2 (C-terminus assumed) [F2/6/10-A2/6/10_C16G2]”, in the series with S. mutans [2], the “% viability remaining” value was found to be 78%. For the molecule “TFFRLFNRSFTQALFKGGGKNLRIIRKGIHIIKKY-NH2 (C-terminus assumed) [G15-F15_C16G2]”, the “% viability remaining” value in the series with S. mutans [2] is 29%.

With “TFFRLLNRSFTQALGKGGGKNLRIIRKGIHIIKKY-NH2 (C-terminus assumed) [F6-L6_C16G2]”, the “% viability remaining” value in the series with S. mutans [2] turned out to be 43%. For KNKKQTDILEKVKEILDKKKKTKSVGQKLY [PF-538], the MIC result against C. difficile (C. difficile) is recorded as “C. difficile, 25 μM”.

As to LSLATFAKIFMTRSNWSLKRFNRL [PF-278], the MIC entry with T. rubrum is listed as “T. rubrum, 50 μM”. NYAVVSHT [PF-209]: in the series on MRSA, the MIC entry is listed as “MRSA, 50 μM”.

Take `CC[C@H](C)[C@H](NC(=O)CNC(=O)[C@H](CCCCN)NC(=O)[C@H](CCCNC(=N)N)NC(=O)[C@@H](NC(=O)[C@@H](NC(=O)[C@H](CCCNC(=N)N)NC(=O)[C@H](CC(C)C)NC(=O)[C@H](CC(N)=O)NC(=O)[C@H](CCCCN)NC(=O)CNC(=O)CNC(=O)CNC(=O)[C@H](CCCCN)NC(=O)CNC(=O)[C@H](CC(C)C)NC(=O)[C@H](C)NC(=O)[C@H](CCC(N)=O)NC(=O)[C@@H](NC(=O)[C@H](CCC(N)=O)NC(=O)[C@H](CO)NC(=O)[C@H](CCCNC(=N)N)NC(=O)[C@H](CC(N)=O)NC(=O)[C@H](CCC(N)=O)NC(=O)[C@H](CC(C)C)NC(=O)[C@H](CCCNC(=N)N)NC(=O)[C@H](Cc1ccccc1)NC(=O)[C@H](CCC(N)=O)NC(=O)[C@@H](N)[C@@H](C)O)[C@@H](C)O)[C@@H](C)CC)[C@@H](C)CC)C(=O)N[C@@H](Cc1c[nH]cn1)C(=O)N[C@H](C(=O)N[C@H](C(=O)N[C@@H](CCCCN)C(=O)N[C@@H](CCCCN)C(=O)N[C@@H](Cc1ccc(O)cc1)C(N)=O)[C@@H](C)CC)[C@@H](C)CC` [F7/11/15 sub Q_C16G2]: the “% viability remaining” value with S. mutans [2] is 93%.

Take “TQFRLFNRSFTQALGKGGGKNLRIIRKGIHIIKKY-NH2 (C-terminus assumed) [F2 to Q2_C16G2]”: the “% viability remaining” value with S. mutans [2] was 47%. Consider “GSVIKKRRKRMAKKKHRKLLKKTRIQRRRAGK [PF-527]”, for which the MIC entry was “T. rubrum, 25 μM” in the series with T. rubrum; “A. niger, 50 μM” in the series with A. niger; “MRSA, 50 μM” in the series on MRSA.

RESKLIAMADMIRRRI-NH2 [PF-545]: the MIC entry in the series on MRSA is on record as “MRSA, 50 μM”. As for LSEMERRRLRKRA-NH2 [PF-529], the MIC entry in the series with A. niger is “A. niger, 50 μM”; in the series with S. pneumoniae, 50 µM. WSRVPGHSDTGWKVWHRW-NH2 [PF-547]: the MIC entry with T. rubrum was “T. rubrum, 25 μM”; in the series on B. subtilis it was “B. subtilis, 25 μM”; against S. mutans [1], 12.5 µM. As to KFSDQIDKGQDALKDKLGDL [PF-525], in the series with A. niger, the MIC entry was “A. niger, 50 μM”. In the case of VLPFPAIPLSRRRACVAAPRPRSRQRAS [PF-168], in the series on MRSA, the MIC result is recorded as “MRSA, 50 μM”. Regarding “TFFRLFNRSLTQALGKGGGKNLRIIRKGIHIIKKY-NH2 (C-terminus assumed) [F10-L10_C16G2]”, in the series on S. mutans [2], the “% viability remaining” value was 30%. With “TLFRLFNRSFTQALGKGGGKNLRIIRKGIHIIKKY-NH2 (C-terminus assumed) [F2-L2_C16G2]”, the “% viability remaining” value in the series with S. mutans [2] came to 63%. As to VYRKRKSILKIYAKLKGWH [K-2], the MIC with S. mutans [1] was found to be 12.5 µM. Turning to “TFFRLQNRSFTQALGKGGGKNLRIIRKGIHIIKKY-NH2 (C-terminus assumed) [F6 to Q6_C16G2]”, the “% viability remaining” value in the series on S. mutans [2] worked out at 79%. The same measure, in the same setting: under “TWFRLFNRSFTQALGKGGGKNLRIIRKGIHIIKKY-NH2 (C-terminus assumed) [F2-W2_C16G2]” stands 45%. Consider KFQGEFTNIGQSYIVSASHMSTSLNTGK [PF-583], for which, in the series with MRSA, the MIC entry is “MRSA, 50 μM”.

With “TKKIELKRFVDAFVKKSYENYILERELKKLIKAINEELPTK [PF-600]”, the MIC result in the series on E. coli is given as “E. coli, 50 μM”. Consider SLQSQLGPCLHDQRH [PF-448], for which, in the series on A. niger, the MIC entry is reported as “A. niger, 25 μM”. With “TFFRLFNRSFTQALDKGGGKNLRIIRKGIHIIKKY-NH2 (C-terminus assumed) [G15-D15_C16G2]”, the “% viability remaining” value in the series with S. mutans [2] was 47%. Turning to MRFGSLALVAYDSAIKHSWPRPSSVRRLRM [PF-672], the MIC result in the series with A. niger is “A. niger, 3 μM”; in the series with MRSA, “MRSA, 1.56 μM”. For `CC[C@H](C)[C@H](NC(=O)CNC(=O)[C@@H](N)CCSC)C(=O)N[C@H](C(=O)N[C@@H](C)C(=O)NCC(=O)N[C@H](C(=O)N[C@H](C(=O)N[C@@H](CCCCN)C(=O)N[C@@H](Cc1ccccc1)C(=O)N[C@H](C(=O)N[C@@H](CCCCN)C(=O)NCC(=O)N[C@@H](CC(C)C)C(=O)N[C@H](C(=O)N[C@@H](CCC(=O)O)C(=O)N[C@@H](CCCCN)C(=O)N[C@@H](Cc1ccccc1)C(=O)N[C@H](C(=O)NCC(=O)N[C@@H](CCCCN)C(=O)O)[C@@H](C)O)[C@@H](C)CC)[C@@H](C)CC)[C@@H](C)CC)[C@@H](C)CC)[C@@H](C)CC` [PF-006], the MIC entry was “B. subtilis, 25 μM” in the series with B. subtilis and “MRSA, 50 μM” with MRSA. Regarding “FESKILNASKELDKEKKVNTALSFNSHQDFAKAYQNGKI [PF-606]”, the MIC entry in the series with E. coli is listed as “E. coli, 50 μM”; against S. mutans [1] (S. mutans), “S. mutans, 50 μM”; with MRSA, “MRSA, 50 μM”.
